Laboratory results published in the supplement of paper PMC10307832.

Assays:
Assay in all cases: relative viability (nuclei count vs DMSO), 5 days (fraction); higher = more cells survive
Shikonin + Decitabine = compound: CC(C)=CC[C@@H](O)C1=CC(=O)c2c(O)ccc(O)c2C1=O [Shikonin] + Nc1ncn([C@H]2C[C@H](O)[C@@H](CO)O2)c(=O)n1 [Decitabine] (partner 2 µM)
Procedure, shortened: (§1)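 After 5 days of treatment, lung cancer cells in 1536-well plates were fixed and stained in a single step (final 0.05% Triton X-100, 1% formaldehyde, 1 ug/ml Hoechst) and their nuclei counted on 4× images. Treatment had been applied by pin tool the day after seeding as one drug alone or as a fixed anchor-drug dose with five library-drug doses (not always all listed) in √10 steps. Relative viability is the nuclei count of treated wells divided by that of vehicle wells, and values are medians of duplicate plates.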

Shikonin + Pictilisib = compound: CC(C)=CC[C@@H](O)C1=CC(=O)c2c(O)ccc(O)c2C1=O [Shikonin] + CS(=O)(=O)N1CCN(Cc2cc3nc(-c4cccc5[nH]ncc45)nc(N4CCOCC4)c3s2)CC1 [Pictilisib] (partner 1 µM)
Procedure, shortened: as §1

[1] = compound: CC(C)N(CCCNC(=O)Nc1ccc(C(C)(C)C)cc1)C[C@H]1O[C@@H](n2ccc3c(N)ncnc32)[C@H](O)[C@@H]1O + NC(=O)Nc1cc(-c2cccc(F)c2)sc1C(=O)N[C@H]1CCCNC1 [AZD7762] (partner 0.2 µM)
Procedure, shortened: as §1

[2] = compound: CC(C)N(CCCNC(=O)Nc1ccc(C(C)(C)C)cc1)C[C@H]1O[C@@H](n2ccc3c(N)ncnc32)[C@H](O)[C@@H]1O + CC(=O)Nc1cccc(-n2c(=O)n(C3CC3)c(=O)c3c(Nc4ccc(I)cc4F)n(C)c(=O)c(C)c32)c1 [Trametinib] (partner 0.02 µM)
Procedure, shortened: as §1

Cell Line | relative viability (Shikonin + Decitabine; first compound 0.01 µM) | relative viability (Shikonin + Decitabine; first compound 0.1 µM) | relative viability (Shikonin + Decitabine; first compound 0.3162 µM) | relative viability (Shikonin + Decitabine; first compound 1 µM) | relative viability (Shikonin + Pictilisib; first compound 0.01 µM) | relative viability (Shikonin + Pictilisib; first compound 0.1 µM) | relative viability (Shikonin + Pictilisib; first compound 0.3162 µM) | relative viability (Shikonin + Pictilisib; first compound 1 µM) | relative viability ([1]; first compound 0.08 µM) | relative viability ([1]; first compound 0.253 µM) | relative viability ([1]; first compound 0.8 µM) | relative viability ([1]; first compound 2.53 µM) | relative viability ([1]; first compound 8 µM) | relative viability ([2]; first compound 0.08 µM) | relative viability ([2]; first compound 0.253 µM) | relative viability ([2]; first compound 0.8 µM) | relative viability ([2]; first compound 2.53 µM) | relative viability ([2]; first compound 8 µM)
NCI-H3122 | 0.485 | 0.467 | 0.443 | 0.458 | 0.638 | 0.643 | 0.607 | 0.494 | 0.967 | 1.03 | 1.02 | 0.907 | 0.959 | 0.242 | 0.299 | 0.202 | 0.242 | 0.247
PC-3 [JPC-3] | 0.765 | 0.896 | 0.843 | 0.82 | 0.69 | 0.84 | 0.759 | 0.788 | 0.759 | 0.81 |  | 0.794 | 0.872 | 0.664 | 0.722 |  | 0.715 | 0.683
PC-14 | 0.216 | 0.278 | 0.413 | 0.161 | 0.817 |  | 0.641 | 0.68 | 0.321 | 0.364 | 0.401 | 0.274 | 0.287 | 0.648 | 0.701 | 0.842 | 0.718 | 0.558
RERF-LC-KJ | 0.782 | 0.703 | 0.636 | 0.653 | 0.549 | 0.512 | 0.557 | 0.248 | 1.09 | 0.954 | 0.867 | 0.981 | 0.84 | 0.902 | 0.938 | 0.815 | 0.911 | 0.783
